Results reported in PubChem BioAssay AID1259407 (Chemical Carcinogenesis Research Information System (CCRIS), 2018).
Active and inactive are the calls of the source. How the calls were made is not given here.

Test system: CCRIS mutagenicity, Ames/micronucleus/aberration tests
Test: CCRIS mutagenicity studies
[1] = Test System: AMES SALMONELLA TYPHIMURIUM, Strain/Indicator: TA98, Metabolic Activation: NONE, Method: STANDARD PLATE
[2] = Test System: AMES SALMONELLA TYPHIMURIUM, Strain/Indicator: TA98, Metabolic Activation: RAT, LIVER, S-9, AROCLOR 1254, Method: STANDARD PLATE
[3] = Test System: AMES SALMONELLA TYPHIMURIUM, Strain/Indicator: TA100, Metabolic Activation: NONE, Method: STANDARD PLATE
[4] = Test System: AMES SALMONELLA TYPHIMURIUM, Strain/Indicator: TA100, Metabolic Activation: RAT, LIVER, S-9, AROCLOR 1254, Method: STANDARD PLATE
[5] = Test System: AMES SALMONELLA TYPHIMURIUM, Strain/Indicator: TA1535, Metabolic Activation: NONE, Method: STANDARD PLATE
[6] = Test System: AMES SALMONELLA TYPHIMURIUM, Strain/Indicator: TA1535, Metabolic Activation: RAT, LIVER, S-9, AROCLOR 1254, Method: STANDARD PLATE
[7] = Test System: AMES SALMONELLA TYPHIMURIUM, Strain/Indicator: TA1537, Metabolic Activation: NONE, Method: STANDARD PLATE
[8] = Test System: AMES SALMONELLA TYPHIMURIUM, Strain/Indicator: TA1537, Metabolic Activation: RAT, LIVER, S-9, AROCLOR 1254, Method: STANDARD PLATE
[9] = Test System: AMES SALMONELLA TYPHIMURIUM, Strain/Indicator: TA1538, Metabolic Activation: RAT, LIVER, S-9, AROCLOR 1254, Method: STANDARD PLATE

With `CC(C)CCON=O` the mutagenic call (End Point: IN VITRO CHROMOSOMAL ABERRATIONS, Test System: CHINESE HAMSTER OVARY CELLS, Metabolic Activation: NONE) was “active; positive”, the mutagenic call (End Point: IN VITRO CHROMOSOMAL ABERRATIONS, Test System: CHINESE HAMSTER OVARY CELLS, Metabolic Activation: RAT, LIVER, S-9, AROCLOR 1254) was “inactive; negative” and the mutagenic call (Test System: AMES SALMONELLA TYPHIMURIUM, Strain/Indicator: TA98, Metabolic Activation: HAMSTER, LIVER, S-9, AROCLOR 1254, Method: STANDARD PLATE) was “inactive; negative”. The mutagenic call [1] was “inactive; negative”, the mutagenic call [2] was “inactive; negative” and the mutagenic call (Test System: AMES SALMONELLA TYPHIMURIUM, Strain/Indicator: TA100, Metabolic Activation: HAMSTER, LIVER, S-9, AROCLOR 1254, Method: STANDARD PLATE) was “inactive; negative”. The mutagenic call [3] was “inactive; negative”, the mutagenic call [4] was “inactive; negative” and the mutagenic call (Test System: AMES SALMONELLA TYPHIMURIUM, Strain/Indicator: TA1535, Metabolic Activation: HAMSTER, LIVER, S-9, AROCLOR 1254, Method: STANDARD PLATE) was “active; positive”. For the same compound, the mutagenic call [5] was “active; positive”, the mutagenic call [6] was “active; positive” and the mutagenic call (Test System: AMES SALMONELLA TYPHIMURIUM, Strain/Indicator: TA1537, Metabolic Activation: HAMSTER, LIVER, S-9, AROCLOR 1254, Method: STANDARD PLATE) was “inactive; negative”. The mutagenic call [7] was “inactive; negative”, the mutagenic call [8] was “inactive; negative” and the mutagenic call (Test System: MOUSE LYMPHOMA, Strain/Indicator: L5178Y (TK+/TK-), Metabolic Activation: NONE, Method: SUSPENSION/PLATE) was “active; positive”. The mutagenic call (Test System: MOUSE LYMPHOMA, Strain/Indicator: L5178Y (TK+/TK-), Metabolic Activation: RAT, LIVER, S-9, AROCLOR 1254, Method: SUSPENSION/PLATE) was “active; positive”.

With `CC(=O)CC1CCC(=O)/C=C\C(=O)OC(CC(C)=O)CCC(=O)/C=C\C(=O)O1` (configuration not stated) the mutagenic call (Test System: CHINESE HAMSTER V-79, Strain/Indicator: V-79 (HPRT)/6-THIOGUANINE, Metabolic Activation: NONE) was “active; positive” and the mutagenic call (Test System: CHINESE HAMSTER V-79, Strain/Indicator: V-79 (HPRT)/6-THIOGUANINE, Metabolic Activation: RAT, LIVER, S-9, 3-METHYLCHOLANTHRENE) was “active; positive”.

`CCOC(=O)Nc1cccc2c1[nH]c1ccncc12` was tested, and the mutagenic call (Test System: AMES SALMONELLA TYPHIMURIUM, Strain/Indicator: TA1537, Metabolic Activation: NONE, Method: PREINCUBATION) was “inactive; negative” and the mutagenic call (Test System: AMES SALMONELLA TYPHIMURIUM, Strain/Indicator: TA1537, Metabolic Activation: RAT, LIVER, S-9, PHENOBARBITAL, Method: PREINCUBATION) was “inactive; negative”.

For `O=C(CCCN1CCN(c2ccccn2)CC1)c1ccc(F)cc1`, the mutagenic call (Test System: AMES SALMONELLA TYPHIMURIUM, Strain/Indicator: TA98, Metabolic Activation: MOUSE, LIVER, S-9, PHENOBARBITAL, Method: STANDARD PLATE) was “inactive; negative”, the mutagenic call [1] was “inactive; negative” and the mutagenic call (Test System: AMES SALMONELLA TYPHIMURIUM, Strain/Indicator: TA98, Metabolic Activation: RAT, LIVER, S-9, AROCLOR 1254, Method: PREINCUBATION) was “inactive; negative”. For the same compound, the mutagenic call [2] was “inactive; negative”, the mutagenic call [3] was “inactive; negative” and the mutagenic call [4] was “inactive; negative”. For the same compound, the mutagenic call (Test System: AMES SALMONELLA TYPHIMURIUM, Strain/Indicator: TA1530, Metabolic Activation: NONE, Method: STANDARD PLATE) was “inactive; negative”, the mutagenic call (Test System: AMES SALMONELLA TYPHIMURIUM, Strain/Indicator: TA1530, Metabolic Activation: RAT, LIVER, S-9, AROCLOR 1254, Method: STANDARD PLATE) was “inactive; negative” and the mutagenic call [5] was “inactive; negative”. The mutagenic call [6] was “inactive; negative”, the mutagenic call [7] was “inactive; negative” and the mutagenic call [8] was “inactive; negative”. The mutagenic call (Test System: AMES SALMONELLA TYPHIMURIUM, Strain/Indicator: TA1538, Metabolic Activation: NONE, Method: STANDARD PLATE) was “inactive; negative” and the mutagenic call [9] was “inactive; negative”.

`CCCC(=O)OCCC(C)C` was tested, and the mutagenic call (Test System: AMES SALMONELLA TYPHIMURIUM, Strain/Indicator: TA97, Metabolic Activation: NONE, Method: PREINCUBATION) was “inactive; negative”, the mutagenic call (Test System: AMES SALMONELLA TYPHIMURIUM, Strain/Indicator: TA97, Metabolic Activation: RAT, LIVER, S-9, AROCLOR 1254, Method: PREINCUBATION) was “inactive; negative” and the mutagenic call (Test System: AMES SALMONELLA TYPHIMURIUM, Strain/Indicator: TA102, Metabolic Activation: NONE, Method: PREINCUBATION) was “inactive; negative”. For the same compound, the mutagenic call (Test System: AMES SALMONELLA TYPHIMURIUM, Strain/Indicator: TA102, Metabolic Activation: RAT, LIVER, S-9, AROCLOR 1254, Method: PREINCUBATION) was “inactive; negative”.

In the case of `C=CCN1CCC=C2c3nc(NC(C)=O)sc3CCC21` (configuration not stated), the mutagenic call [9] is reported as “inactive; negative”.

In the case of `O=[N+]([O-])c1ccc2c3c(cccc13)-c1ccccc1-2`, the mutagenic call (Test System: AMES SALMONELLA TYPHIMURIUM, Strain/Indicator: TA97, Metabolic Activation: NONE) is reported as “active; positive”, the mutagenic call (Test System: AMES SALMONELLA TYPHIMURIUM, Strain/Indicator: TA98(1,8-DNP6), Metabolic Activation: NONE) is reported as “active; positive” and the mutagenic call (Test System: AMES SALMONELLA TYPHIMURIUM, Strain/Indicator: TA98(1,8-DNP6), Metabolic Activation: NONE, Method: STANDARD PLATE) is reported as “active; positive”. The mutagenic call (Test System: AMES SALMONELLA TYPHIMURIUM, Strain/Indicator: TA98(NR), Metabolic Activation: NONE) was “active; positive”, the mutagenic call (Test System: AMES SALMONELLA TYPHIMURIUM, Strain/Indicator: TA98(NR), Metabolic Activation: NONE, Method: STANDARD PLATE) was “active; positive” and the mutagenic call (Test System: AMES SALMONELLA TYPHIMURIUM, Strain/Indicator: TA98, Metabolic Activation: NONE) was “active; positive”. The mutagenic call [2] was “active; positive”, the mutagenic call (Test System: AMES SALMONELLA TYPHIMURIUM, Strain/Indicator: TA100(NR), Metabolic Activation: NONE, Method: STANDARD PLATE) was “inactive; negative” and the mutagenic call (Test System: AMES SALMONELLA TYPHIMURIUM, Strain/Indicator: TA100(TN5-1,8-DNP1012), Metabolic Activation: NONE, Method: STANDARD PLATE) was “inactive; negative”. The mutagenic call (Test System: AMES SALMONELLA TYPHIMURIUM, Strain/Indicator: TA100, Metabolic Activation: NONE) was “active; positive”, the mutagenic call [3] was “active; positive” and the mutagenic call (Test System: AMES SALMONELLA TYPHIMURIUM, Strain/Indicator: TA1535, Metabolic Activation: NONE) was “inactive; negative”. For the same compound, the mutagenic call (Test System: AMES SALMONELLA TYPHIMURIUM, Strain/Indicator: TA1537, Metabolic Activation: NONE) was “active; positive”, the mutagenic call (Test System: AMES SALMONELLA TYPHIMURIUM, Strain/Indicator: TA1538, Metabolic Activation: NONE) was “active; positive” and the mutagenic call (Test System: AMES SALMONELLA TYPHIMURIUM, Strain/Indicator: TA1978, Metabolic Activation: NONE) was “active; positive”. For the same compound, the mutagenic call (Test System: AMES SALMONELLA TYPHIMURIUM, Strain/Indicator: TA7001, Metabolic Activation: NONE, Method: PREINCUBATION) was “active; positive”, the mutagenic call (Test System: AMES SALMONELLA TYPHIMURIUM, Strain/Indicator: TA7002, Metabolic Activation: NONE, Method: PREINCUBATION) was “active; positive” and the mutagenic call (Test System: AMES SALMONELLA TYPHIMURIUM, Strain/Indicator: TA7003, Metabolic Activation: NONE, Method: PREINCUBATION) was “active; positive”. The mutagenic call (Test System: AMES SALMONELLA TYPHIMURIUM, Strain/Indicator: TA7004, Metabolic Activation: NONE, Method: PREINCUBATION) was “active; positive”, the mutagenic call (Test System: AMES SALMONELLA TYPHIMURIUM, Strain/Indicator: TA7005, Metabolic Activation: NONE, Method: PREINCUBATION) was “active; positive” and the mutagenic call (Test System: AMES SALMONELLA TYPHIMURIUM, Strain/Indicator: TA7006, Metabolic Activation: NONE, Method: PREINCUBATION) was “active; positive”. For the same compound, the mutagenic call (Test System: AMES SALMONELLA TYPHIMURIUM, Strain/Indicator: TM677, Metabolic Activation: RAT, LIVER, S-9, AROCLOR 1254, Method: STANDARD PLATE) was “active; positive”.

In the case of `Nc1nc(Cl)c2[nH]cnc2n1`, the mutagenic call [3] is reported as “active; positive”.
